# Test results from ChEMBL document CHEMBL3112457, “Inhibition of hypoxia-inducible factor prolyl hydroxylase domain oxygen sensors: tricking the body into mounting orchestrated survival and repair responses” (J Med Chem, 2013).
# Tests used:
# Prolyl hydroxylase EGLN3 [1] = biological target: T1, Prolyl hydroxylase EGLN3 (Homo sapiens, UniProt Q9H6Z9); assay: Inhibition of 6His-tagged PHD3 (1 to 239) (unknown origin)-mediated Cy5CODD hydroxylation expressed in Escherichia coli preincubated for 3 mins followed by substrate addition measured after 30 mins
# T1 sequence (Q9H6Z9 whole entry): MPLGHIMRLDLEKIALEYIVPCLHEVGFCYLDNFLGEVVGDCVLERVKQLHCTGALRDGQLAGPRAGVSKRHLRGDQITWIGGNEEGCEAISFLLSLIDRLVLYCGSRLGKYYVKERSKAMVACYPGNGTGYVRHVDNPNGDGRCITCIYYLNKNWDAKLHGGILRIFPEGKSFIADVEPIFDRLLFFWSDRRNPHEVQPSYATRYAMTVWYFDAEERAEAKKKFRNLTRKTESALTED
# Prolyl hydroxylase EGLN3 [2] = biological target: T1, Prolyl hydroxylase EGLN3; assay: Inhibition of PHD3 in human Hep3B cells assessed as stimulation of EPO release after 48 hrs by ELISA; format: cell-based, Hep 3B2
# Prolyl hydroxylase EGLN3 [3] = biological target: T1, Prolyl hydroxylase EGLN3; assay: Inhibition of 6His-tagged PHD3 (1 to 239) (unknown origin)-mediated Cy5CODD hydroxylation expressed in Escherichia coli after 30 mins
# Homo sapiens [4] = organism: Homo sapiens; assay: Inhibition of prolyl hydroxylase (unknown origin) assessed as stimulation of EPO release by cell-based assay
# Egl nine homolog 1 [5] = biological target: T2, Egl nine homolog 1 (Homo sapiens, UniProt Q9GZT9); assay: Inhibition of PHD2 (unknown origin)
# Target sequence in this assay (Q9GZT9 whole entry): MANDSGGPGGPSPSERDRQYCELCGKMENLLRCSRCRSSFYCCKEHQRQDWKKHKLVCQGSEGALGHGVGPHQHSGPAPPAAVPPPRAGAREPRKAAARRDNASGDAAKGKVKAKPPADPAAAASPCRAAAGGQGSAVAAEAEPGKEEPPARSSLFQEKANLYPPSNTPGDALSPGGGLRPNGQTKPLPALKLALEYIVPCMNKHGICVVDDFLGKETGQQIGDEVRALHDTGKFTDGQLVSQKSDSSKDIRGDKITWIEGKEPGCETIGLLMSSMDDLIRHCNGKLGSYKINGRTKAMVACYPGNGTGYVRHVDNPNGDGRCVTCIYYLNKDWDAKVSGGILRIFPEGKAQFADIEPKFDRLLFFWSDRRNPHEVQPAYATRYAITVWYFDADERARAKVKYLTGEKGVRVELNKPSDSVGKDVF
# Egl nine homolog 1 [6] = biological target: T2, Egl nine homolog 1; assay: Inhibition of HIF-PH2 (unknown origin) expressed in insect Hi5 cells using [methoxycoumarin]-DLDLEALAPYIPADDDFQL-amide as substrate at 7.4 uM by [14]CO2 capture assay relative to control; conditions: BTI-TN-5B1-4
# Target sequence in this assay (Q9GZT9 2-426 limits assumed): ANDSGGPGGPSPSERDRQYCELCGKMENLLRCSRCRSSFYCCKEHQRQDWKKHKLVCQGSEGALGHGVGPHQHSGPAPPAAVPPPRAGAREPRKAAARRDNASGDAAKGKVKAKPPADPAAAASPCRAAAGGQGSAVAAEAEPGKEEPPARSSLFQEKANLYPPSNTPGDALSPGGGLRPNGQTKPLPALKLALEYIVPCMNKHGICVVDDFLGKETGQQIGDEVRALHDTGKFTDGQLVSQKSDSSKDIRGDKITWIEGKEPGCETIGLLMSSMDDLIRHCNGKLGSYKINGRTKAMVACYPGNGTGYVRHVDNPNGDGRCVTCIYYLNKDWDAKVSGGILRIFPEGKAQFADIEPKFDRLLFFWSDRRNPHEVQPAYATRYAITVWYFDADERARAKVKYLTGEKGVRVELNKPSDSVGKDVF
# Egl nine homolog 1 [7] = biological target: T2, Egl nine homolog 1; assay: Inhibition of FLAG-tagged full length PHD2 (unknown origin) expressed in Sf9 cells using HIF-1alpha peptide as substrate preincubated for 30 mins followed by substrate addition measured after 2 hrs by HTRF assay in presence of 2-oxoglutarate
# Target sequence in this assay (Q9GZT9 whole entry): as the sequence (Q9GZT9 whole entry) above
# Homo sapiens [8] = assay: Antianemic activity in human assessed as change in hemoglobin level administered thrice weekly for 12 weeks; format: functional
# Homo sapiens [9] = assay: Reduction in total cholesterol level in chronic kidney disease patient administered for 16 to 24 weeks relative to control; format: functional; parameters: scale not given: the % may be the effect or the level left
# Homo sapiens [10] = assay: Antianemic activity in nondialysis chronic kidney disease patient assessed as increase in hemoglobin level at 60 to 150 mg administered twice/thrice weekly for 16 to 24 weeks; format: functional
# Homo sapiens [11] = assay: Antianemic activity in end stage renal disease patient receiving hemodialysis assessed as increase in hemoglobin level at 1.5 to 2 mg/kg, po administered thrice weekly for 6 weeks relative to control; format: functional; conditions: dose mg/kg 1.5-2
# Homo sapiens [12] = assay: Antianemic activity in chronic kidney disease patient assessed as hemoglobin level administered for 4 weeks; format: functional
# [13] = Inhibition of human CPH2 assessed as 2-Oxoglutarate conversion to succinic acid after 1 hr by radiometric HPLC analysis
# [14] = Inhibition of human CPH1 assessed as 2-Oxoglutarate conversion to succinic acid after 1 hr by radiometric HPLC analysis
# Homo sapiens [15] = assay: Antianemic activity in chronic kidney disease patient assessed as increase in hemoglobin level at 6 to 20 mg/kg administered twice weekly for 4 weeks relative to control; format: functional; conditions: dose mg/kg 6-20
# Homo sapiens [16] = assay: Antianemic activity in chronic kidney disease patient assessed as increase in hemoglobin level at 1250 mg, po administered twice weekly for 15 weeks (reference value: 0.2 g/dl); format: functional
# Homo sapiens [17] = assay: Antianemic activity in chronic kidney disease patient assessed as increase in hemoglobin level at 625 mg, po administered twice weekly for 15 weeks (reference value: 0.2 g/dl); format: functional
# Homo sapiens [18] = assay: Antianemic activity in chronic kidney disease patient assessed as increase in hemoglobin level at 375 mg, po administered twice weekly for 15 weeks (reference value: 0.2 g/dl); format: functional
# Homo sapiens [19] = assay: Antianemic activity in chronic kidney disease patient assessed as increase in hemoglobin level at 1250 mg, po administered twice weekly for 15 weeks measured after 4 weeks relative to control; format: functional
# Homo sapiens [20] = assay: Antianemic activity in chronic kidney disease patient assessed as increase in hemoglobin level at 625 mg, po administered twice weekly for 15 weeks measured after 4 weeks relative to control; format: functional
# Homo sapiens [21] = assay: Antianemic activity in chronic kidney disease patient assessed as increase in hemoglobin level at 375 mg, po administered twice weekly for 15 weeks measured after 4 weeks relative to control; format: functional
# Homo sapiens [22] = assay: Increase in plasma EPO level in human at 20 mg/kg, po administered for 7 days relative to control; format: functional
# Homo sapiens [23] = assay: Increase in plasma EPO level in anephric end stage renal disease patient at 20 mg/kg, po administered for 7 days relative to control; format: functional
# Homo sapiens [24] = assay: Increase in plasma EPO level in nephric end stage renal disease patient at 20 mg/kg, po administered for 7 days relative to control; format: functional
# Homo sapiens [25] = assay: Antianemic activity in chronic kidney disease patient assessed as increase in hemoglobin level at 20 mg/kg, po administered 3 times per week for 4 weeks (reference value: 0.35 g/dL); format: functional
# Egl nine homolog 1 [26] = biological target: T2, Egl nine homolog 1; assay: Inhibition of HIF-PH2 (unknown origin) expressed in insect Hi5 cells using [methoxycoumarin]-DLDLEALAPYIPADDDFQL-amide as substrate at 22 uM by [14]CO2 capture assay relative to control; conditions: BTI-TN-5B1-4
# Target sequence in this assay (Q9GZT9 2-426 limits assumed): as the sequence (Q9GZT9 2-426 limits assumed) above
# Egl nine homolog 1 [27] = biological target: T2, Egl nine homolog 1; assay: Inhibition of HIF-PH2 (unknown origin) expressed in insect Hi5 cells using [methoxycoumarin]-DLDLEALAPYIPADDDFQL-amide as substrate at 22.2 uM by [14]CO2 capture assay relative to control; conditions: BTI-TN-5B1-4
# Target sequence in this assay (Q9GZT9 2-426 limits assumed): as above
# [28] = Inhibition of prolyl hydroxylase (unknown origin) using biotin-labeled DLDLEMLAPYIPMDDDFQL as substrate after 60 mins by FRET assay; parameters: species or system Homo sapiens
# Prolyl hydroxylase EGLN3 [29] = biological target: T1, Prolyl hydroxylase EGLN3; assay: Inhibition of full length human recombinant EGLN-3 using DLDLEALAPYIPADDDFQL as substrate after 20 mins by mass spectrophotometric analysis
# Egl nine homolog 1 [30] = biological target: T2, Egl nine homolog 1; assay: Inhibition of human recombinant EGLN-1 using DLDLEALAPYIPADDDFQL as substrate after 20 mins by mass spectrophotometric analysis
# Target sequence in this assay (Q9GZT9 whole entry): as the sequence (Q9GZT9 whole entry) above
# [31] = Inhibition of prolyl hydroxylase in human Hep3B cells assessed as stimulation of EPO release at 100 uM after 24 hrs by ELISA relative to control; format: cell-based, Hep 3B2
# Egl nine homolog 1 [32] = biological target: T2, Egl nine homolog 1; assay: Inhibition of PHD2 (unknown origin) using P564 HIFlalpha as substrate after 1 hr by TR-FRET assay
# Target sequence in this assay (Q9GZT9 whole entry): as above
# Mus musculus = assay: Suppression of TNBS-induced colitis in mouse assessed as increase in hematocrit at 1 to 5 mg/kg, po after 7 days relative to control; format: functional; conditions: dose mg/kg 1-5
# Egl nine homolog 1 [33] = biological target: T2, Egl nine homolog 1; assay: Inhibition of PHD2 in HEK293 cells assessed as VEGF release by immunoassay; format: cell-based
# Target sequence in this assay (Q9GZT9 whole entry): as above
# Hep 3B2 = assay: Inhibition of prolyl hydroxylase in human Hep3B cells assessed as stimulation of EPO release at 100 uM after 24 hrs relative to control; format: cell-based; parameters: scale not given: the % may be the effect or the level left
compound,measurement,setting,value
O=C(O)CNC(=O)c1c(O)c(Br)cc2c1ncn2Cc1ccccc1,IC50,Prolyl hydroxylase EGLN3 [1],0.001 µM
CC(C)(C)c1ccc(Cn2nc(-c3ccc(Cl)cc3)c(O)c(C(=O)NCC(=O)O)c2=O)cc1,EC50,Prolyl hydroxylase EGLN3 [2],0.4 µM
same,IC50,Prolyl hydroxylase EGLN3 [3],0.0008 µM
O=C(O)c1cnn(-c2nc3cc(OC(F)(F)F)c(Cl)cc3[nH]2)c1,A50,Homo sapiens [4],50 µM
same,IC50,Egl nine homolog 1 [5],0.1 µM
COc1ccc(-n2c(=O)[nH]c3cc(C(=O)NCc4ccc(Cl)cc4)ncc3c2=O)nc1OC,IC50,Prolyl hydroxylase EGLN3 [1],0.001 µM
same,EC50,Prolyl hydroxylase EGLN3 [2],1 µM
O=C(O)CNC(=O)c1c(O)c2cc(Cl)cc(C#Cc3ccccc3)c2sc1=O,inhibition,Egl nine homolog 1 [6],99%
O=C(O)CNC(=O)c1c(O)c2c(n(Cc3ccc(C(F)(F)F)cc3)c1=O)CN(C(=O)C1CC1)C2,IC50,Egl nine homolog 1 [7],< 0.01 µM
O=C(Cc1ccc2ccccc2c1)Nc1cnc(-n2cccn2)nc1O,IC50,Egl nine homolog 1 [7],0.0007 µM
O=C(O)CNC(=O)c1c(O)n2ccccc2nc1=O,EC50,Prolyl hydroxylase EGLN3 [2],> 10 µM
Cc1nc(C(=O)NCC(=O)O)c(O)c2ccc(Oc3ccccc3)cc12 [ROXADUSTAT],Activity,Homo sapiens [8],2.1 g/dL
same,Activity,Homo sapiens [9],-20%
same,Activity,Homo sapiens [10],1.4 g/dL
same,Activity,Homo sapiens [11],1 g/dL
same,Activity,Homo sapiens [12],1 g/dL
Cn1c(=O)c(C(=O)NCC(=O)O)c(O)c2ccc(Br)cc21,IC50,[13],0.111 µM
same,IC50,[14],0.351 µM
O=C(O)CNC(=O)c1nc(Cl)c2ccccc2c1O,Activity,Homo sapiens [15],1.3 g/dL
same,Activity,Homo sapiens [16],2.4 g/dL
same,Activity,Homo sapiens [17],1.4 g/dL
same,Activity,Homo sapiens [18],1.1 g/dL
same,Activity,Homo sapiens [19],76%
same,Activity,Homo sapiens [20],60%
same,Activity,Homo sapiens [21],50%
same,fold change (FC),Homo sapiens [22],12.7
same,fold change (FC),Homo sapiens [23],14.5
same,fold change (FC),Homo sapiens [24],30.8
same,Activity,Homo sapiens [25],1.9 g/dL
COc1ccc(-n2c(=O)[nH]c3cc(C(=O)NCc4ccc5c(c4)OCO5)sc3c2=O)nc1OC,IC50,Prolyl hydroxylase EGLN3 [1],0.001 µM
same,EC50,Prolyl hydroxylase EGLN3 [2],1 µM
O=C(O)CNC(=O)c1c(O)c2c(Cl)c(Cl)c(Cl)n2n(Cc2ccccc2)c1=O,inhibition,Egl nine homolog 1 [26],99%
O=C(O)CNC(=O)c1c(O)c(-c2cccnc2)cc2nccnc12,IC50,Prolyl hydroxylase EGLN3 [1],0.001 µM
same,EC50,Prolyl hydroxylase EGLN3 [2],0.1 µM
O=C(O)CNC(=O)c1nc(-c2cn(Cc3ccccc3)nn2)c2snc(-c3ccc(Cl)cc3)c2c1O,inhibition,Egl nine homolog 1 [27],100%
O=C(O)CNC(=O)c1c(O)c2ccc(F)cc2n(Cc2ccccc2Cl)c1=O,IC50,Prolyl hydroxylase EGLN3 [3],0.02 µM
O=c1c(-c2cccnc2)c[nH]n1-c1cc(N2CCCCC2)ncn1,IC50,[28],< 30 µM
O=C(O)CNC(=O)c1ccc(-c2ccc3ccccc3c2)cn1,IC50,Prolyl hydroxylase EGLN3 [29],> 500 µM
same,IC50,Egl nine homolog 1 [30],> 500 µM
N#Cc1ccccc1Cn1c(=O)c(C(=O)NCC(=O)O)c(O)n(Cc2ccccc2)c1=O,EC50,Prolyl hydroxylase EGLN3 [2],0.4 µM
same,IC50,Prolyl hydroxylase EGLN3 [3],0.0008 µM
O=C(O)CNC(=O)c1c(O)c(C(=O)NCc2ccccc2)cn(Cc2ccccc2)c1=O,EC50,Prolyl hydroxylase EGLN3 [2],0.001 µM
O=C(O)CNC(=O)c1c(O)cc(-c2cc(F)cc(Cl)c2)c2ncnn12,EC50,[31],5.9 µM
O=C(O)CNC(=O)c1c(O)c2cc(-c3ccc(Oc4ccccc4)cc3)ccc2oc1=O,inhibition,Egl nine homolog 1 [6],100%
O=C(O)CCC(=O)C1=C(O)c2ccc(Cl)cc2C2(CCOCC2)C1=O,IC50,Egl nine homolog 1 [32],< 0.1 µM
Cc1c(O)c(C(=O)NCC(=O)O)c(=O)n(Cc2ccccc2)c1C,EC50,Prolyl hydroxylase EGLN3 [2],> 10 µM
N#Cc1cn(-c2c[nH]n(-c3cc(N4CC(F)(F)C4)ncn3)c2=O)nn1,IC50,[28],0.07 µM
CC(C)(C)c1ccc(Cn2c(-c3c(Cl)cccc3Cl)nc(O)c(C(=O)NCC(=O)O)c2=O)cc1,EC50,Prolyl hydroxylase EGLN3 [2],0.4 µM
same,IC50,Prolyl hydroxylase EGLN3 [3],0.0008 µM
Cn1c(=O)c(C(=O)NCC(=O)O)c(O)c2ccc(-c3cccnc3)nc21,IC50,Egl nine homolog 1 [32],< 0.05 µM
COc1ccc(-n2c(=S)[nH]c3sc(C(=O)NCc4ccc(Cl)cc4)c(C)c3c2=O)nc1OC,IC50,Prolyl hydroxylase EGLN3 [1],0.001 µM
same,EC50,Prolyl hydroxylase EGLN3 [2],1 µM
Cn1c(=O)c(C(=O)NCC(=O)O)c(O)c2sccc21,IC50,Egl nine homolog 1 [32],0.003 µM
O=C(O)CNC(=O)c1c(O)c2c(n(Cc3ccc(C(F)(F)F)cc3)c1=O)CSC2,IC50,Egl nine homolog 1 [7],< 0.01 µM
COc1ccc(-n2c(=S)[nH]c3cc(C(=O)NCc4ccc(Cl)cc4)sc3c2=O)nc1OC,IC50,Prolyl hydroxylase EGLN3 [1],0.001 µM
same,EC50,Prolyl hydroxylase EGLN3 [2],1 µM
CC(C)(C)OC(=O)N1CCN(Cc2ccn(Cc3ccc(Cl)cc3)c(=O)c2O)CC1 [IZILENDUSTAT],Activity,Mus musculus,2%
same,EC50,Egl nine homolog 1 [33],17 µM
O=C(O)CNC(=O)c1ncc(-c2ccc3ccccc3c2)cc1O,IC50,Prolyl hydroxylase EGLN3 [29],0.017 µM
same,IC50,Egl nine homolog 1 [30],0.017 µM
O=C(O)CNC(=O)C1=C(O)c2ccc(Cl)cc2C2(CCOCC2)C1=O,IC50,Egl nine homolog 1 [32],< 0.1 µM
O=C(O)CNC(=O)c1c2ncn(Cc3ccccc3)c2cc2c1ncn2Cc1ccccc1,IC50,Prolyl hydroxylase EGLN3 [1],0.001 µM
Cc1ccccc1-c1ccc2nc(-n3cc(C(=O)O)cn3)[nH]c(=O)c2c1,Activity,Hep 3B2,60%
O=C(O)CNC(=O)c1c(O)ccc2cc(-c3ccccc3)cnc12,IC50,Prolyl hydroxylase EGLN3 [1],0.001 µM
O=C(O)c1cnn(-c2nc(N3CCCC3)c3cc(Oc4ccc(Cl)cc4)ccc3n2)c1,Activity,Hep 3B2,96%
Cc1cccc(CN2CCC3(CC2)C(=O)N(c2ccc(-c4ccccc4)cc2)c2ccc(C(=O)O)cc23)n1,IC50,Egl nine homolog 1 [7],0.0007 µM
O=C(O)CNC(=O)c1c(O)c(C(=O)NCc2ccccc2)c(O)n(Cc2ccccc2)c1=O,EC50,Prolyl hydroxylase EGLN3 [2],0.001 µM
O=C(O)CNC(=O)C1=C(O)c2ccccc2C1=O,IC50,Egl nine homolog 1 [32],0.003 µM
Cn1c(=O)c(C(=O)CCC(=O)O)c(O)c2ccc(Br)cc21,IC50,[13],13 µM
O=C(O)CNC(=O)c1c(O)c2c(n(CC3Cc4ccccc4C3)c1=O)COC2,IC50,Egl nine homolog 1 [7],< 0.01 µM
